Holding throughout (type): biochemical
In one assay the target is T1, human factor XIa (Homo sapiens, UniProt P03951).
T1 construct: purchased Kordia
The assay is described as follows: Measurement of FXIa inhibition (fluorogenic peptide substrate Boc-Glu(OBzl)-Ala-Arg-AMC). The note with it: factor XIa from Kordia, 15 min preincubation, 30 min at 22° C., fluorescence.

The test system of a further assay is human and animal plasma. In words: Determination of anticoagulatory activity: activated partial thromboplastin time (aPTT) in plasma. To be noted: concentration of test substance which brings about a 1.5-fold extension of the aPTT, 37° C., C.K. Prest kit. An outline of the steps: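 Citrated human or animal plasma (e.g. mouse, rat, rabbit, pig, dog) preincubated 3 min at 37 °C with test substance and cephalin/kaolin PTT reagent. Value is the concentration giving a 1.5-fold aPTT extension.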

The next assay has as its target T2, human plasmin (Homo sapiens, UniProt P00747).
T2 construct: purchased Kordia
The assay is described as follows: Measurement of plasmin inhibition (fluorogenic peptide substrate MeOSuc-Ala-Phe-Lys-AMC). The note with it: plasmin from Kordia, 15 min preincubation, 30 min at 22° C., fluorescence. As to the method: The plasmin inhibition of the inventive substances is determined using a biochemical test system which utilizes the reaction of a peptidic plasmin substrate to determine the enzymatic activity of human plasmin. Here, plasmin cleaves from the peptic plasmin substrate the C-terminal aminomethylcoumarin (AMC), the fluorescence of which is measured. The determinations are carried out in microtitre plates.
Test substances are dissolved in dimethyl sulphoxide and serially diluted in dimethyl sulphoxide (3000 μM to 0.0078 μM; resulting final concentrations in the test: 50 μM to 0.00013 μM). In each case 1 μl of the diluted substance solutions is placed into the wells of white microtitre plates from Greiner (384 wells). […] After 15 min of incubation, the enzyme reaction is started by addition of 20 μl of the plasmin substrate MeOSuc-Ala-Phe-Lys-AMC dissolved in assay buffer (150 μM in assay buffer) from Bachem, the mixture is incubated at room temperature (22° C.) for 30 min and fluorescence is then measured (excitation: 360 nm, emission: 460 nm). The measured emissions of the test batches with test substance are compared to those of control batches without test substance (only dimethyl sulphoxide instead of test substance in dimethyl sulphoxide), and IC50 values are calculated from the concentration/activity relationships.

Where a name gives a salt, the structure may show the parent alone.

What is called IC50 is the concentration at which inhibition is half-maximal. Low values mean inhibition by little substance, high ones a need for much substance.

T1 sequence (P03951 388-625 limits assumed): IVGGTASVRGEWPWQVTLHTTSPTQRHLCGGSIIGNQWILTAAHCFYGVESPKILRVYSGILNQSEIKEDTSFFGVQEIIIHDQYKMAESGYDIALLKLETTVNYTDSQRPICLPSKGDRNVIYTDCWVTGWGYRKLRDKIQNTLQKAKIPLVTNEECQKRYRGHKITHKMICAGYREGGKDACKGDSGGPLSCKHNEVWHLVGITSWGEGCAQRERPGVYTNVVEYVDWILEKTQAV
T1 sequence (P03951 19-387 partner limits assumed): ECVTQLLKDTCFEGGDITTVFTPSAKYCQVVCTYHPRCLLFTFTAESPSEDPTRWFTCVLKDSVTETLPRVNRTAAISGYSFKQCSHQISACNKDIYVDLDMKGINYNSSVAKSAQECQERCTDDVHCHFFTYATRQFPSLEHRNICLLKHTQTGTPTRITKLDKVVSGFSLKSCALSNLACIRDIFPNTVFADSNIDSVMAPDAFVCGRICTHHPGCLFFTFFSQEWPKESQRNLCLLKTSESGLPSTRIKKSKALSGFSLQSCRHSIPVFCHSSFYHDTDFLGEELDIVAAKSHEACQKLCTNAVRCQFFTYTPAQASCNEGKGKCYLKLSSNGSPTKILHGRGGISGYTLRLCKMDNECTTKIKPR
T2 sequence (P00747 581-810 limits assumed): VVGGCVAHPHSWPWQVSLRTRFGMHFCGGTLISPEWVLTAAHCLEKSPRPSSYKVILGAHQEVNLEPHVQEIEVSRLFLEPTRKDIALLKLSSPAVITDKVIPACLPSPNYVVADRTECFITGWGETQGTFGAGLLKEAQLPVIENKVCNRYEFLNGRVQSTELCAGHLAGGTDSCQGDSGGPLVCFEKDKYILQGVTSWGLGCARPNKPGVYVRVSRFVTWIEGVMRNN
T2 sequence (P00747 97-580 partner limits assumed): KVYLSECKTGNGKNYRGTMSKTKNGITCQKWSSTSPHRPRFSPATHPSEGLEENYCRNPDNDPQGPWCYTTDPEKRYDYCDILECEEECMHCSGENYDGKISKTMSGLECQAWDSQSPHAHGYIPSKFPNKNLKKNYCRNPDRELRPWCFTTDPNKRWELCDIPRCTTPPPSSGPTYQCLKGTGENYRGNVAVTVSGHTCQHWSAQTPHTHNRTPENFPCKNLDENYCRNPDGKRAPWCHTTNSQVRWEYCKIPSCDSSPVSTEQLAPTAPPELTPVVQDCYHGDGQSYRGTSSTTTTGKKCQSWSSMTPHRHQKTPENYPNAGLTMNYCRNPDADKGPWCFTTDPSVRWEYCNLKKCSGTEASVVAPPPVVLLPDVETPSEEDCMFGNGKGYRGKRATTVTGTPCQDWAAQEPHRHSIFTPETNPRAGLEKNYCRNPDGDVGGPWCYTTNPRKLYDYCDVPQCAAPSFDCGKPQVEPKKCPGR

For the molecule `CC1CN(c2ccc(-c3ccc(C[C@H](NC(=O)C4CCC(CN)CC4)C(=O)Nc4ccc(-c5nn[nH]n5)cc4)cc3)cn2)CC(C)O1` (mixture of isomers) [Example 9, N-alpha-{[trans-4-(Aminomethyl)cyclohexyl]carbonyl}-4-{6-[(2RS,6SR)-2,6-dimethylmorpholin-4-yl]pyridin-3-yl}-N-[4-(2H-tetrazol-5-yl)phenyl]-L-phenylalaninamide hydrochloride], the IC50 against human factor XIa is 3.6 nM; against human plasmin, 14 nM. The “aPTT” value with human and animal plasma is 0.35 µmol/L.

`Cc1nc(N)ncc1-c1ccc(C[C@H](NC(=O)C2CCC(CN)CC2)C(=O)Nc2ccc(-c3nnn[nH]3)cc2)cc1` (stereo partly drawn) [Example 55, N-alpha-{[trans-4-(Aminomethyl)cyclohexyl]carbonyl}-4-(2-amino-4-methylpyrimidin-5-yl)-N-[4-(1H-tetrazol-5-yl)phenyl]-L-phenylalaninamide hydrochloride]: at human factor XIa, the IC50 was 3 nM. Further, the “aPTT” value in the assay on human and animal plasma amounted to 0.22 µmol/L.

`CN(C)CCCOc1ccc(-c2ccc(C[C@H](NC(=O)C3CCC(CN)CC3)C(=O)Nc3ccc(-c4nnc(Cl)[nH]4)cc3)cc2)cn1` (stereo partly drawn) [Example 56, N-alpha-{[trans-4-(Aminomethyl)cyclohexyl]carbonyl}-N-[4-(3-chloro-4H-1,2,4-triazol-5-yl)phenyl]-4-{6-[3-(dimethylamino)propoxy]pyridin-3-yl}-L-phenylalaninamide hydrochloride] displayed an IC50 against human factor XIa of 9.6 nM. In addition, the “aPTT” value with human and animal plasma came out at 0.25 µmol/L.

On human factor XIa, `Cc1ccncc1-c1ccc(C[C@H](NC(=O)C2CCC(CN)CC2)C(=O)Nc2ccc(-c3nn[nH]n3)cc2)cc1` (stereo partly drawn) [Example 57, N-alpha-{[trans-4-(Aminomethyl)cyclohexyl]carbonyl}-4-(4-methylpyridin-3-yl)-N-[4-(2H-tetrazol-5-yl)phenyl]-L-phenylalaninamide hydrochloride] gave an IC50 of 4.4 nM. The “aPTT” value with human and animal plasma is 0.35 µmol/L.

Turning to `CCOC(=O)c1ccc(-c2ccc(C[C@H](NC(=O)[C@H]3CC[C@H](CN)CC3)C(=O)Nc3ccc(-c4nn[nH]n4)cc3)cc2)c(C)n1` [Example 58, Ethyl 5-{4-[(2S)-2-({[trans-4-(aminomethyl)cyclohexyl]carbonyl}amino)-3-oxo-3-{[4-(2H-tetrazol-5-yl)phenyl]amino}propyl]phenyl}-6-methylpyridin-2-carboxylate hydrochloride], the IC50 on human factor XIa worked out at 0.8 nM; on human plasmin, 8.6 nM. For the same molecule, the “aPTT” value in the assay on human and animal plasma is 0.34 µmol/L.

Turning to `Cl.NC[C@H]1CC[C@H](C(=O)N[C@@H](Cc2ccc(-c3cnc(N4CCOCC4)nc3)cc2)C(=O)Nc2ccc(-c3nc(C(F)(F)C(F)(F)C(=O)O)n[nH]3)cc2)CC1` [Example 59, 3-(5-{4-[(N-{[trans-4-(Aminomethyl)cyclohexyl]carbonyl}-4-[2-(morpholin-4-yl)pyrimidin-5-yl]-L-phenylalanyl)amino]phenyl}-1H-1,2,4-triazol-3-yl)-2,2,3,3-tetrafluoropropanoic acid hydrochloride], the IC50 against human factor XIa was determined as 2.6 nM. Moreover, in the assay on human and animal plasma, the “aPTT” value was 0.08 µmol/L.

The values are drawn from US20160280699A1, “SUBSTITUTED PHENYLALANINE DERIVATIVES” (BAYER PHARMA AKTIENGESELLSCHAFT, priority 2013, published 2016).
